pIC50: −log10 of the molar value. Counter-ions that a name gives are not always drawn.

In the first assay the target is MK-2 (Homo sapiens, UniProt P49137). Put plainly: Determination of MK-2 IC50 (anion exchange resin capture assay, HSP-peptide phosphorylation). The format is biochemical. The conditions noted are these: MK-2 Avg. IC50.
Chain of MK-2 (P49137 whole entry, species assumed): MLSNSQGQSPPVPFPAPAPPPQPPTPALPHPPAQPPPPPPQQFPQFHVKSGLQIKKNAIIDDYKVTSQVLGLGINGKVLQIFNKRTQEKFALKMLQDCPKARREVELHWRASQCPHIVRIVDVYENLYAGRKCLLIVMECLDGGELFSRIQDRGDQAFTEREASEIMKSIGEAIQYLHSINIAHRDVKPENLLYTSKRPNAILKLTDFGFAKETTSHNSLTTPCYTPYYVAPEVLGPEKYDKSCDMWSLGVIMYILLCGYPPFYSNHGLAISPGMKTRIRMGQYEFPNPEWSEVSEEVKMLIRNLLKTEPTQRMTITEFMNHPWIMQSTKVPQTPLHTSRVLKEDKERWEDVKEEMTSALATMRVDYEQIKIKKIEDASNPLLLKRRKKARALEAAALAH
Method: The phosphorylation of HSP-peptide ([sequence]) by MAPKAPK2 was measured using an anion exchange resin capture assay method. […] The reaction was terminated and [γ^33P]ATP was removed from solution by the addition of 150 μl of AG 1×8 ion exchange resin in 900 mM sodium formate pH 3.0. A 50 μl aliquot of head volume was removed from the quenched reaction mixture and added to a 96-well plate, 150 μl of Microscint-40 (Packard) was added and the amount of phosphorylated-peptide was determined. Allow the Microscint to sit in the plates for 60 minutes prior to counting.
Compounds are evaluated as potential inhibitors of the MK2 kinase by measuring their effects on MK2 phosphorylation of the peptide substrate. Compounds may be screened initially at two concentrations prior to determination of IC50 values. Screening results are expressed as percent inhibition at the concentrations of compound tested. For IC50 value determinations, compounds are tested at six concentrations in ten-fold serial dilutions with each concentration tested in triplicate. Results are expressed as IC50 values in micromolar. The assay is performed at a final concentration of 2% DMSO.
Compounds are evaluated as potential inhibitors of the MK-2 kinase by measuring their effects on MK-2 phosphorylation of the peptide substrate. Compounds may be screened initially at two concentrations prior to determination of IC50 values. Screening results are expressed as percent inhibition at the concentrations of compound tested. For IC50 value determinations, compounds are tested at six concentrations in ten-fold serial dilutions with each concentration tested in triplicate. Results are expressed as IC50 values in micromolar. The assay is performed at a final concentration of 2% DMSO.
By pIC50 is commonly meant −log10 of the IC50, conventionally taken in molar units. On to `CCOC(=O)c1cc(-c2ccnc(-c3ccc(O[Si](C)(C)C(C)(C)C)cc3)c2)nn1CCN` [Example 136, ethyl 1-(2-aminoethyl)-3-[2-(4-{[tert-butyl(dimethyl)silyl]oxy}phenyl)pyridin-4-yl]-1H-pyrazole-5-carboxylate dihydrochloride], for which the negative logarithm of the IC50 (pIC50) is 4.55.

The same assay, now with this note: read-out: MK-2 Avg. IC50.
Turning to `CN(C)Cc1cccc(-c2cc(-c3cc4n(n3)CCNC4=O)ccn2)c1` [Example 128, 2-(2-{3-[(dimethylamino)methyl]phenyl}pyridin-4-yl)-6,7-dihydropyrazolo[1,5-a]pyrazin-4(5H)-one trifluoroacetate], the pIC50 was 4.81.
Same read-out and setting: the value for `O=C1NCCn2nc(-c3ccnc(-c4cccc(OCc5ccccc5)c4)c3)cc21` [Example 129, 2-{2-[3-(benzyloxy)phenyl]pyridin-4-yl}-6,7-dihydropyrazolo[1,5-a]pyrazin-4(5H)-one] was 4.81; that for `O=C1NCCCn2nc(-c3ccnc(-n4cccn4)c3)cc21` [Example 130, 2-[2-(1H-pyrazol-1-yl)pyridin-4-yl]-5,6,7,8-tetrahydro-4H-pyrazolo[1,5-a][1,4]diazepin-4-one hydrochloride] was 4.79.
Same read-out and setting: the value for `CCOC(=O)c1cc(-c2ccncc2)nn1CCN` [Example 133, ethyl 1-(2-aminoethyl)-3-pyridin-4-yl-1H-pyrazole-5-carboxylate dihydrochloride] was 4.61; that for `Cc1ccc(C(C)CCNCCn2nc(-c3ccncc3)cc2C(=O)O)o1` (stereo not shown) [Example 134, 1-(2-{[3-(5-methyl-2-furyl)butyl]amino}ethyl)-3-pyridin-4-yl-1H-pyrazole-5-carboxylic acid trifluoroacetate] was 4.57.
On the same count and under the same terms, the value for `O=C1NCCCn2nc(-c3ccnc(-n4cncn4)c3)cc21` [Example 135, 2-[2-(1H-1,2,4-triazol-1-yl)pyridin-4-yl]-5,6,7,8-tetrahydro-4H-pyrazolo[1,5-a][1,4]diazepin-4-one hydrochloride] was 4.55; that for `CCOC(=O)c1cc(-c2ccnc(-c3cccc([N+](=O)[O-])c3)c2)nn1CCCN` [Example 137, ethyl 1-(3-aminopropyl)-3-[2-(3-nitrophenyl)pyridin-4-yl]-1H-pyrazole-5-carboxylate dihydrochloride] was 4.50.
On to `CN(C)c1cc(-c2cc3n(n2)CCNC3=O)ccn1` [Example 138, 2-[2-(dimethylamino)pyridin-4-yl]-6,7-dihydropyrazolo[1,5-a]pyrazin-4(5H)-one trifluoroacetate], for which the negative-log IC50 (pIC50) is 4.43.
The same measure, in the same setting: the value for `CCOC(=O)c1cc(-c2ccnc(-c3cnc4ccccc4c3)c2)nn1CCCN` [Example 139, ethyl 1-(3-aminopropyl)-3-(2-quinolin-3-ylpyridin-4-yl)-1H-pyrazole-5-carboxylate dihydrochloride] was 4.41.
On the same count and under the same terms, the value for `O=C1NCCn2nc(-c3ccnc(Cl)c3)cc21` [Example 140, 2-(2-chloropyridin-4-yl)-6,7-dihydropyrazolo[1,5-a]pyrazin-4(5H)-one] was 4.35; that for `CCOC(=O)c1cc(-c2ccnc(-c3ccc(O)cc3)c2)nn1CCCN` [Example 141, ethyl 1-(3-aminopropyl)-3-[2-(4-hydroxyphenyl)pyridin-4-yl]-1H-pyrazole-5-carboxylate hydrochloride] was 4.32.
Still for that read-out and setting: the value for `Cc1cnn(-c2cc(-c3cc4n(n3)CCCNC4=O)ccn2)c1` [Example 142, 2-[2-(4-methyl-1H-pyrazol-1-yl)pyridin-4-yl]-5,6,7,8-tetrahydro-4H-pyrazolo[1,5-a][1,4]diazepin-4-one trifluoroacetate] was 4.27; that for `CCOC(=O)c1cc(-c2ccncc2)nn1CCCN` [Example 143, ethyl 1-(3-aminopropyl)-3-pyridin-4-yl-1H-pyrazole-5-carboxylate hydrochloride] was 4.22.
As for `O=C1NCCn2nc(-c3ccnc(-c4ccc(Cl)c(Cl)c4)c3)cc21` [Example 144, 2-[2-(3,4-dichlorophenyl)pyridin-4-yl]-6,7-dihydropyrazolo[1,5-a]pyrazin-4(5H)-one trifluoroacetate], the negative logarithm of the IC50 (pIC50) was 4.18.
Still for that read-out and setting: the value for `O=C1NCCCn2nc(-c3ccnc(Cl)c3)cc21` [Example 145, 2-(2-chloropyridin-4-yl)-5,6,7,8-tetrahydro-4H-pyrazolo[1,5-a][1,4]diazepin-4-one] was 4.09; that for `O=C1NCCn2nc(-c3ccnc(-c4ccc(F)c(F)c4)c3)cc21` [Example 146, 2-[2-(3,4-difluorophenyl)pyridin-4-yl]-6,7-dihydropyrazolo[1,5-a]pyrazin-4(5H)-one trifluoroacetate] was 4.05; that for `O=C1NCCCn2nc(-c3ccc(O)cc3)cc21` [Example 147, 2-(4-hydroxyphenyl)-5,6,7,8-tetrahydro-4H-pyrazolo[1,5-a][1,4]diazepin-4-one] was 3.93.
On the same count and under the same terms, the value for `O=C1NCCCn2nc(-c3ccnc(-c4ccc(OC(F)(F)F)cc4)c3)cc21` [Example 148, 2-{2-[4-(trifluoromethoxy)phenyl]pyridin-4-yl}-5,6,7,8-tetrahydro-4H-pyrazolo[1,5-a][1,4]diazepin-4-one] was 3.91.
Regarding `O=C1NCCn2nc(-c3ccnc(-c4ccc(OC(F)(F)F)cc4)c3)cc21` [Example 149, 2-{2-[4-(trifluoromethoxy)phenyl]pyridin-4-yl}-6,7-dihydropyrazolo[1,5-a]pyrazin-4(5H)-one trifluoroacetate], the pIC50 was 3.88.
Same read-out and setting: the value for `NCCCn1nc(-c2cccc(O)c2)cc1C(=O)O` [Example 150, 1-(3-aminopropyl)-3-(3-hydroxyphenyl)-1H-pyrazole-5-carboxylic acid trifluoroacetate] was 3.82.
Same read-out and setting: the value for `COc1ccc(-c2cc(C(=O)O)n(CCCNC(=O)OC(C)(C)C)n2)cc1` [Example 151, 1-{3-[(tert-butoxycarbonyl)amino]propyl}-3-(4-methoxyphenyl)-1H-pyrazole-5-carboxylic acid] was 3.81.

Values taken from patent publication US20040152739A1, “Acyclic pyrazole compounds for the inhibition of mitogen activated protein kinase-activated protein kinase-2” (priority 2002, published 2004).
